# Results as given in patent US10626094B2 (La Jolla Institute of Allergy & Immunology, priority 2014, dated 2020).
# Molecular target: LMPTP-A (Low Molecular Weight Protein Tyrosine Phosphatase-A) enzyme (Homo sapiens (Human), UniProt P24666)
# Experiment: LMPTP primary screening / LMPTP (OMFP) enzyme inhibition assay, fluorescence intensity
# Type: biochemical
# Settings: LMPTP-A, OMFP substrate, method of Example 2; read-out: IC50
# In short: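 Single-concentration screen, test compounds 20 μM final, […]. Enzyme (0.625 nM) and OMFP (400 μM) react 50 min at room temp, dark, in Bis-Tris buffer pH 6.0 containing DTT 1 mM and Triton X-100 0.01%. Read-out: fluorescence intensity.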
# Chain of LMPTP-A (Low Molecular Weight Protein Tyrosine Phosphatase-A) enzyme (P24666 whole entry): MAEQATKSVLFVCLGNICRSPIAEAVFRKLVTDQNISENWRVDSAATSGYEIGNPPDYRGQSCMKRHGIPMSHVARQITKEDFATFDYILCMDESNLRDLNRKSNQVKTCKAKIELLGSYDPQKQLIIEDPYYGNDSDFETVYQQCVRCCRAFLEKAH
row,Structure (SMILES),IC50
1,Fc1cc(F)cc(-c2cc(NCCCN3CCCCC3)c3ccccc3n2)c1 [Compound I85],0.801 to 5 µM
2,Fc1cc(F)c(-c2cc(NCCCN3CCCCC3)c3ccccc3n2)cc1F [Compound I86],0.801 to 5 µM
3,FC(F)(F)c1ccc(Oc2ccc(-c3cc(NCCCN4CCCCC4)c4ccccc4n3)cn2)cc1 [Compound I87],0.801 to 5 µM
4,Fc1ccc(-c2cc(NCCCN3CCCCC3)c3ccccc3n2)c(F)n1 [Compound I90],0.801 to 5 µM
5,CSc1cncc(-c2cc(NCCCN3CCCCC3)c3ccccc3n2)c1 [Compound I92],0.801 to 5 µM
6,CCCCOc1ncccc1-c1cc(NCCCN2CCCCC2)c2ccccc2n1 [Compound I93],0.801 to 5 µM
7,Fc1cccnc1-c1cc(NCCCN2CCCCC2)c2ccccc2n1 [Compound I94],0.801 to 5 µM
8,CCOc1ncccc1-c1cc(NCCCN2CCCCC2)c2ccccc2n1 [Compound I96],0.801 to 5 µM
9,Fc1cccc(-c2cc(NCCCN3CCCCC3)c3ccccc3n2)n1 [Compound I97],0.801 to 5 µM
10,"CC(C)(C)OC(=O)n1c(-c2cc(NCCCN3CCCCC3)c3ccccc3n2)cc2ccccc21 [Compound I98, tert-butyl 2-{4-[(3-piperidylpropyl)amino]-2-quinolyl}indolecarboxylate]",> 5 µM
11,Clc1ncccc1-c1cc(NCCCN2CCCCC2)c2ccccc2n1 [Compound I99],0.801 to 5 µM
12,Clc1cc(-c2cc(NCCCN3CCCCC3)c3ccccc3n2)ccn1 [Compound I102],0.801 to 5 µM
13,CCOc1ccc(C(F)(F)F)c(-c2cc(NCCCN3CCCCC3)c3ccccc3n2)c1 [Compound I105],0.801 to 5 µM
14,CN(C)S(=O)(=O)c1ccc(C(F)(F)F)c(-c2cc(NCCCN3CCCCC3)c3ccccc3n2)c1 [Compound I106],0.801 to 5 µM
15,Cc1ccc(C)c(-c2cc(NCCCN3CCCCC3)c3ccccc3n2)c1 [Compound I107],0.801 to 5 µM
16,COc1ccc(-c2cc(NCCCN3CCCCC3)c3ccccc3n2)cc1OC [Compound I108],0.801 to 5 µM
17,Cn1ccc2cc(-c3cc(NCCCN4CCCCC4)c4ccccc4n3)ccc21 [Compound I109],0.2 to 0.8 µM
18,c1ccc2c(NCCCN3CCCCC3)cc(-c3ccc4[nH]ccc4c3)nc2c1 [Compound I110],0.801 to 5 µM
19,c1ccc2c(NCCCN3CCCCC3)cc(-c3ccc4nc[nH]c4c3)nc2c1 [Compound I111],0.801 to 5 µM
20,Cc1noc(C)c1-c1cc(NCCCN2CCCCC2)c2ccccc2n1 [Compound I112],> 5 µM
21,CSc1ccc(-c2cc(NCCCN3CCCCC3)c3ccccc3n2)c(C(F)(F)F)c1 [Compound I114],0.801 to 5 µM

row,Structure (SMILES),IC50
1,Fc1ccc(-c2cc(NCCCN3CCCCC3)c3ccccc3n2)c(F)c1F [Compound I115],0.801 to 5 µM
2,CC(=O)Nc1ccccc1-c1cc(NCCCN2CCCCC2)c2ccccc2n1 [Compound I116],> 5 µM
3,CC(=O)Nc1ccc(-c2cc(NCCCN3CCCCC3)c3ccccc3n2)cc1 [Compound I117],0.801 to 5 µM
4,CC(=O)Nc1cccc(-c2cc(NCCCN3CCCCC3)c3ccccc3n2)c1 [Compound I118],0.801 to 5 µM
5,FC(F)(F)c1cc(Cl)ccc1-c1cc(NCCCN2CCCCC2)c2ccccc2n1 [Compound I119],0.801 to 5 µM
6,FC(F)(F)c1ccc(-c2cc(NCCCC3CCCNC3)c3ccccc3n2)c(Cl)c1 (stereo not shown) [Compound I120],0.801 to 5 µM
7,CS(=O)(=O)c1ccc(-c2cc(NCCCN3CCCCC3)c3ccccc3n2)c(C(F)(F)F)c1 [Compound I121],0.801 to 5 µM
8,Fc1ccc(-c2cc(NCCCN3CCCCC3)c3ccccc3n2)c(C(F)(F)F)c1 [Compound I122],0.801 to 5 µM
9,NC(=O)c1cccc(-c2cc(NCCCN3CCCCC3)c3ccccc3n2)c1 [Compound I123],0.801 to 5 µM
10,c1ccc2[nH]c(-c3cc(NCCCN4CCCCC4)c4ccccc4n3)cc2c1 [Compound I124],> 5 µM
11,c1ccc2c(NCCCN3CCCCC3)cc(-c3ccc4c(c3)OCCO4)nc2c1 [Compound I125],0.801 to 5 µM
12,Fc1cc(Cl)ccc1-c1cc(NCCCN2CCCCC2)c2ccccc2n1 [Compound I126],0.2 to 0.8 µM
13,O=C(O)c1cccc(-c2cc(NCCCN3CCCCC3)c3ccccc3n2)c1 [Compound I128],0.801 to 5 µM
14,CN(C)c1cccc(-c2cc(NCCCN3CCCCC3)c3ccccc3n2)c1 [Compound I129],0.801 to 5 µM
15,Fc1cccc(F)c1-c1cc(NCCCN2CCCCC2)c2ccccc2n1 [Compound I130],0.801 to 5 µM
16,FC(F)(F)COc1ccccc1-c1cc(NCCCN2CCCCC2)c2ccccc2n1 [Compound I131],0.801 to 5 µM
17,CS(=O)(=O)c1ccc(-c2cc(NCCCN3CCCCC3)c3ccccc3n2)cc1 [Compound I132],0.801 to 5 µM
18,COc1ccc(Cl)cc1-c1cc(NCCCN2CCCCC2)c2ccccc2n1 [Compound I133],0.801 to 5 µM
19,Cc1cc(Cl)ccc1-c1cc(NCCCN2CCCCC2)c2ccccc2n1 [Compound I134],0.801 to 5 µM
20,COCc1ccc(-c2cc(NCCCN3CCCCC3)c3ccccc3n2)cc1 [Compound I135],0.2 to 0.8 µM
21,c1ccc2c(NCCCN3CCCCC3)cc(-c3ccsc3)nc2c1 [Compound I136],> 5 µM

row,Structure (SMILES),IC50
1,CCOC(=O)c1cccc(-c2cc(NCCCN3CCCCC3)c3ccccc3n2)c1 [Compound I137],0.801 to 5 µM
2,c1ccc2sc(-c3cc(NCCCN4CCCCC4)c4ccccc4n3)cc2c1 [Compound I140],0.801 to 5 µM
3,COc1ncc(-c2cc(NCCCN3CCCCC3)c3ccccc3n2)c(OC)n1 [Compound I141],0.801 to 5 µM
4,Clc1ccc(-c2cc(NCCCN3CCCCC3)c3ccccc3n2)s1 [Compound I142],0.801 to 5 µM
5,c1ccc2c(NCCCN3CCCCC3)cc(-c3cncnc3)nc2c1 [Compound I143],0.801 to 5 µM
6,"c1csc(-c2cc(NCCCC3CCCNC3)c3ccccc3n2)c1 (stereo not shown) [Compound I144, (3-piperidylpropyl)(2-(2-thienyl)(4-quinolyl))amine]",0.801 to 5 µM
7,C[Si](C)(C)c1cccc(-c2cc(NCCCN3CCCCC3)c3ccccc3n2)c1 [Compound I145],0.801 to 5 µM
8,CS(=O)(=O)c1cccc(-c2cc(NCCCN3CCCCC3)c3ccccc3n2)c1 [Compound I146],0.801 to 5 µM
9,NCc1ccc(-c2cc(NCCCN3CCCCC3)c3ccccc3n2)cc1 [Compound I148],0.2 to 0.8 µM
10,FC(F)(F)c1ccc(-c2cc(NCCCN3CCCCC3)c3ccccc3n2)c(C(F)(F)F)c1 [Compound I149],0.2 to 0.8 µM
11,Cc1cc(NCCCN2CCCCC2)c2ccccc2n1 [Compound I151],> 5 µM
12,O=[N+]([O-])c1ccc(C(F)(F)F)c(-c2cc(NCCCN3CCCCC3)c3ccccc3n2)c1 [Compound I152],0.801 to 5 µM
13,FC(F)(F)c1ncccc1-c1cc(NCCCN2CCCCC2)c2ccccc2n1 [Compound I153],0.801 to 5 µM
14,COc1ncccc1-c1cc(NCCCN2CCCCC2)c2ccccc2n1 [Compound I154],0.801 to 5 µM
15,COc1ccc(-c2cc(NCCCN3CCCCC3)c3ccccc3n2)cn1 [Compound I156],0.801 to 5 µM
16,CSc1ccccc1-c1cc(NCCCN2CCCCC2)c2ccccc2n1 [Compound I158],0.2 to 0.8 µM
17,Cc1ccccc1-c1cc(NCCCN2CCCCC2)c2ccccc2n1 [Compound I159],0.801 to 5 µM
18,Cc1cccc(-c2cc(NCCCN3CCCCC3)c3ccccc3n2)c1C [Compound I161],0.801 to 5 µM
19,"Fc1cccc(-c2cc(NCCCC3CCCNC3)c3ccccc3n2)c1 (stereo not shown) [Compound I162, [2-(3-fluorophenyl)(4-quinolyl)](3-piperidylpropyl)amine]",0.801 to 5 µM
